Experimental data as given in article PMC7883289, “Synthesis of Paeonol-Ozagrel Conjugate: Structure Characterization and In Vivo Anti-Ischemic Stroke potential” (Frontiers in Pharmacology, 2021).

Columns and labels:
Assay type in all cases: in vivo
[1] = Pharmacokinetic study after intravenous injection, LC-MS/MS of plasma; details: rat, rats, 4.5 mg/kg
Protocol: Six rats were given POC (4.5 mg/kg) by intravenous injection, then, an approximately 1.0 ml sample of blood was obtained from the fossa orbitalis vein of rats and placed into heparin–rinsed EP pipes according to a programmed schedule at 3, 5, 10, 20, 30, 45, 60, 120, and 240 min after dosing.
Plasma (80 μL) was mixed with glibenclamide (20 μL) as the internal standard, and then 900 μL of acetonitrile was used to precipitate the protein. All samples were vortex–mixed for 5 min, then centrifuged at 15,000 r/min for 10 min. Then, 800 μL of supernatant was measured, blowed dry by nitrogen, and reconstituted with 100 μL of acetonitrile.
The Thermo Fisher Scientific Hypersil GOLD column (2.1 mm × 100 mm, 1.9 μm) was used as the analytical column; it was maintained at 30°C with 1.0 mmol/L of ammonium acetate (A) and mathanol (B) as the mobile phase, using glibenclamide as the internal standard (IS). The gradient elution program was operated as follows: 0–1.5 min, 55% B–65% B; 1.5–2.5 min, 65% B–80% B; 2.5–3.0 min, 80% B–90% B; 3.0–4.0 min, 90% B; 4.0–4.5 min, 90% B–55% B; 4.5–6.0 min, 55% B. The sample injection volume was 5.0 μL, and the flow rate set at 0.2 ml/min.
Mass spectrometry was operated with multiple reaction monitoring (MRM) in a positive ionization mode. The ion pair of POC is m/z 377.1 and 163.0; the declustering voltage (DP) is 28 eV; and the collision energy (CE) is 30 eV. The ion pair of glibenclamide is m/z 494.1 and 169.0, and the DP is 65 eV, the CE is 50 eV.

[2] = test system: middle cerebral artery occlusion (MCAO) rats; assay: Evaluation of neurological deficit (Longa score) in MCAO rats; details: 24 h after reperfusion, single iv dose 2 h after reperfusion: paeonol and OS 3 mg/kg, POC 4.5 mg/kg, n = 6
Protocol: Male Sprague Dawley (SD) rats weighing among 220 g-230 g (Anhui Medicine University, Hefei, China; certificate number: SCXK20190,003) were housed under ad libitum access to food and water with a standardized light-dark cycle condition (25 ± 2°C, 12-hour light/dark cycle). All the experimental protocols were performed in accordance with the Institutional Animal Care and Use Committee of Anhui University of Chinese Medicine (Animal ethics number: AHUCM-rats-2019001). We used the minimal number of study animals (n = 6 rats in each group for different experiments). The rats were fastened upon the operating table in a supine position after being anesthetized with 2% pelltobarbitalum natricum (50 mg/kg). After disinfection of the skin within close proximity of the operative region, the right common carotid artery (CCA), external carotid artery (ECA) and internal carotid artery (ICA) were exposed with blunt dissection. The CCA was temporarily ligated and the ECA were permanently ligated ([Liu et al., 2016]). A nylon monofilament surgical thread was introduced into the ICA to block the MCA when the blunted distal end met resistance. After 2 h of occlusion, reperfusion was accomplished to restore blood supply to the MCA area by removing the filament ([Li et al., 2009]; [Zhai et al., 2017]). […] Rats were split randomly into five groups, including the sham, model, paeonol, OS and POC group. […] Neurological deficit was evaluated 24 h after reperfusion (blinded to experimenters). […] The rating score was assessed by the following standard: no neurological deficit, 0; failure to extend left forepaw fully, one; spontaneous circling to the left, two; falling to the left, three; inability to walk spontaneously and coma of consciousness, 4. […] Neurological scores for each group were calculated using six rats according to a sample size calculation (α err prob = 0.05, 1-β err prob = 0.95) and references ([Katayama et al., 2017]; [[…] al., 2019]; [Zheng et al., 2019]).

[3] = test system: middle cerebral artery occlusion (MCAO) rats; assay: HE staining, histopathologic changes in brain cortex of MCAO rats; details: 24 h after treatment, POC 4.5 mg/kg iv, compared with the model group, n = 3
Protocol: Male Sprague Dawley (SD) rats weighing among 220 g–230 g (Anhui Medicine University, Hefei, China; certificate number: SCXK20190,003) were housed under ad libitum access to food and water with a standardized light-dark cycle condition (25 ± 2°C, 12–hour light/dark cycle). All the experimental protocols were performed in accordance with the Institutional Animal Care and Use Committee of Anhui University of Chinese Medicine (Animal ethics number: AHUCM–rats–2019001). We used the minimal number of study animals (n = 6 rats in each group for different experiments). The rats were fastened upon the operating table in a supine position after being anesthetized with 2% pelltobarbitalum natricum (50 mg/kg). After disinfection of the skin within close proximity of the operative region, the right common carotid artery (CCA), external carotid artery (ECA) and internal carotid artery (ICA) were exposed with blunt dissection. The CCA was temporarily ligated and the ECA were permanently ligated ([Liu et al., 2016]). A nylon monofilament surgical thread was introduced into the ICA to block the MCA when the blunted distal end met resistance. After 2 h of occlusion, reperfusion was accomplished to restore blood supply to the MCA area by removing the filament ([Li et al., 2009]; [Zhai et al., 2017]). […] Rats were split randomly into five groups, including the sham, model, paeonol, OS and POC group. […]

- AUC(0-t) [1]: 264 ng·h/mL
- Cmax [1]: 465 ± 269 ng/mL
- clearance [1]: 277 ± 62.3 mL/min/kg
- half-life [1]: 53.5 ± 19.6 min
- MRT last ([1]; read-out: MRT0-t (converted)): 51.9 min
Structure (SMILES): COc1ccc(C(C)=O)c(OC(=O)C=Cc2ccc(Cn3ccnc3)cc2)c1 [POC, paeonol-ozagrel conjugate]
- neurological deficits score (Longa, 0-4) [2]: 1.50 ± 0.55
- histopathologic changes in brain cortex (HE) [3]: only marginal neuronal cells damage
